Experimental data from US8936728B2, “Chemicals for oil spill cleanup” (priority 2010, dated 2015).

Tested on: fresh water minnows
Experiment: Toxicity tests using fresh water minnows
Format: in vivo
Details: test water containing 25 ppm; control water without the phosphonium bromide
Method: Toxicity tests were conducted using fresh water minnows. The fresh water minnows were placed in test water containing 25 ppm dodecylbenzyldimethyl phosphonium bromide and in a control water sample without the phosphonium bromide.

In the case of `CCCCCCCCCCCC[P+](C)(C)Cc1ccccc1.[Br-]` [dodecylbenzyldimethyl phosphonium bromide], the “number of fresh water minnows dying over a given time in the test water versus control” value is reported as “about the same as in the control”.
